Source: the supplement of paper PMC10307832

Legend:
Assay in all cases: relative viability (nuclei count vs DMSO), 5 days (fraction); higher = more cells survive
Venetoclax + Phenformin = compound: CC1(C)CCC(CN2CCN(c3ccc(C(=O)NS(=O)(=O)c4ccc(NCC5CCOCC5)c([N+](=O)[O-])c4)c(Oc4cnc5[nH]ccc5c4)c3)CC2)=C(c2ccc(Cl)cc2)C1 [Venetoclax] + N=C(N)NC(=N)NCCc1ccccc1 [Phenformin] (partner 250 µM)
How it was run: (§1)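 Values are medians from duplicate plates. Each reflects relative viability, defined as the nuclei count of treated wells over that of vehicle wells. Lung cancer cell lines in 1536-well plates were pin-tool dosed one day after seeding with one drug alone or with a fixed anchor-drug dose plus five library-drug doses (not always all listed) in √10 steps, then fixed, stained and imaged at 4× after 5 days.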

Selumetinib + Luminespib = compound: Cn1cnc2c(F)c(Nc3ccc(Br)cc3Cl)c(C(=O)NOCCO)cc21 [Selumetinib] + CCNC(=O)c1noc(-c2cc(C(C)C)c(O)cc2O)c1-c1ccc(CN2CCOCC2)cc1 [Luminespib] (partner 0.01 µM)
How it was run: as §1

Selumetinib + Alpelisib = compound: Cn1cnc2c(F)c(Nc3ccc(Br)cc3Cl)c(C(=O)NOCCO)cc21 [Selumetinib] + Cc1nc(NC(=O)N2CCC[C@H]2C(N)=O)sc1-c1ccnc(C(C)(C)C(F)(F)F)c1 [Alpelisib] (partner 2 µM)
How it was run: as §1

Venetoclax + Navitoclax = compound: CC1(C)CCC(CN2CCN(c3ccc(C(=O)NS(=O)(=O)c4ccc(NCC5CCOCC5)c([N+](=O)[O-])c4)c(Oc4cnc5[nH]ccc5c4)c3)CC2)=C(c2ccc(Cl)cc2)C1 [Venetoclax] + CC1(C)CCC(c2ccc(Cl)cc2)=C(CN2CCN(c3ccc(C(=O)NS(=O)(=O)c4ccc(N[C@H](CCN5CCOCC5)CSc5ccccc5)c(S(=O)(=O)C(F)(F)F)c4)cc3)CC2)C1 [Navitoclax] (partner 0.5 µM)
How it was run: as §1

Cell Line | relative viability (Venetoclax + Phenformin; first compound 0.01 µM) | relative viability (Venetoclax + Phenformin; first compound 0.03162 µM) | relative viability (Venetoclax + Phenformin; first compound 0.1 µM) | relative viability (Venetoclax + Phenformin; first compound 0.3162 µM) | relative viability (Venetoclax + Phenformin; first compound 1 µM) | relative viability (Selumetinib + Luminespib; first compound 0.02 µM) | relative viability (Selumetinib + Luminespib; first compound 0.06325 µM) | relative viability (Selumetinib + Luminespib; first compound 0.2 µM) | relative viability (Selumetinib + Luminespib; first compound 0.6325 µM) | relative viability (Selumetinib + Alpelisib; first compound 0.02 µM) | relative viability (Selumetinib + Alpelisib; first compound 0.06325 µM) | relative viability (Selumetinib + Alpelisib; first compound 0.2 µM) | relative viability (Selumetinib + Alpelisib; first compound 0.6325 µM) | relative viability (Venetoclax + Navitoclax; first compound 0.01 µM) | relative viability (Venetoclax + Navitoclax; first compound 0.03162 µM) | relative viability (Venetoclax + Navitoclax; first compound 0.1 µM) | relative viability (Venetoclax + Navitoclax; first compound 0.3162 µM) | relative viability (Venetoclax + Navitoclax; first compound 1 µM)
SK-LU-1 | 0.537 | 0.613 | 0.526 | 0.531 | 0.505 | 0.183 | 0.17 | 0.178 | 0.181 | 1.01 | 0.988 | 0.838 | 0.542 | 0.502 | 0.994 | 0.945 | 0.729 | 0.804
SK-MES-1 | 0.616 | 0.685 | 0.69 | 0.601 | 0.511 | 0.74 | 0.559 | 0.344 | 0.375 | 0.851 | 0.587 | 0.56 | 0.396 | 1.25 | 1.16 | 1.2 | 1.25 | 1.09
SW 1573 | 0.425 | 0.373 | 0.327 | 0.47 | 0.392 | 0.207 | 0.168 | 0.214 | 0.228 | 0.868 | 0.707 | 0.618 | 0.552 | 0.877 | 1.02 | 0.971 | 1.03 | 0.997
